Experimental data from US5834286A, “Recombinant cells that express phytate degrading enzymes in desired ratios” (Rohm Enzyme Finland Oy, priority 1995, dated 1998).
Like-named read-outs stand apart in the source and are kept apart here.

Key:
[1] = molecular target: T1, Aspergillus niger var. awamori strain ALKO243 (ATCC#38854) pH2.5 acid phosphatase, purified native enzyme, SEQ. ID. NO. 4 (Aspergillus awamori, UniProt P34755); test: Apparent Km of purified pH2.5 acid phosphatase (phosphate release, molybdate detection); format: biochemical; conditions: 37° C., read-out: apparent Km for sodium phytate
T1 construct: Peptide #1110T is derived from a trypsin digestion of purified native pH2.5 acid phosphatase; endogenous in cells; host or cells: A. niger var. awamori strain ALKO243 (ATCC#38854), purified in house from the cell-free culture medium
T1 sequence (P34755 20-479): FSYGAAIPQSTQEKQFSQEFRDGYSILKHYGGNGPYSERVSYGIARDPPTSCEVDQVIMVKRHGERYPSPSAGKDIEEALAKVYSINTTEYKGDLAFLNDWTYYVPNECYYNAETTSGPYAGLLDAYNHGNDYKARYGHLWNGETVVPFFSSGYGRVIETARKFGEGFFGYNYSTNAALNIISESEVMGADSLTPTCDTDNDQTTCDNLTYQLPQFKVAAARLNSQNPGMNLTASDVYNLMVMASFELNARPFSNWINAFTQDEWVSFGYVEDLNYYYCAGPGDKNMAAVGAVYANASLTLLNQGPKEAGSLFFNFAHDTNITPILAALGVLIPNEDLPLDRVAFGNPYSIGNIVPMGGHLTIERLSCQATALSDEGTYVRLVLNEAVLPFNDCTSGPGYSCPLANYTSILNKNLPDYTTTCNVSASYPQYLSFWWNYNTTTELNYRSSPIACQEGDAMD
Experimental: (§1) Both assays measure the amount of inorganic phosphate that is released by enzyme action as colorimetrically quantifying using reduction of a phosphomolybdate complex. One phytase unit (PU) is the amount of enzyme which liberates, under the conditions described below, 1 nmol of inorganic phosphate from Na-phytate in one minute at 37° C. One pH2.5 acid phosphatase unit (HFU) is the amount of enzyme which liberates, under the conditions indicated below, 1 nmol of inorganic phosphate from P-nitrophenyl phosphate in one minute.
(§2) pH2.5 acid phosphatase activity was determined in a similar fashion: namely, 0.1 ml of diluted enzyme (diluted in 0.2M Glycine-HCl buffer, pH2.5) was added to 1.9 ml of substrate (30 mM p-nitrophenyl phosphate [Boehringer Mannheim] dissolved in 0.2M Glycine --HCl buffer) pH2.5. After a fifteen-minute incubation at 37° C., the reaction was terminated by addition of an equal volume of 15% TCA (as above). The released orthophosphate was measured using Reagent C (as described above), and the activity determined by a comparison to known diluted phosphate standards (as above) and by using the calculations described above.

[2] = molecular target: Aspergillus ficuum phytase (WO 91/05053) (Aspergillus niger, UniProt P34752); conditions: reported in WO 91/05053; substrate not given; cited from earlier work
Sequence of Aspergillus ficuum phytase (WO 91/05053) (P34752 24-467): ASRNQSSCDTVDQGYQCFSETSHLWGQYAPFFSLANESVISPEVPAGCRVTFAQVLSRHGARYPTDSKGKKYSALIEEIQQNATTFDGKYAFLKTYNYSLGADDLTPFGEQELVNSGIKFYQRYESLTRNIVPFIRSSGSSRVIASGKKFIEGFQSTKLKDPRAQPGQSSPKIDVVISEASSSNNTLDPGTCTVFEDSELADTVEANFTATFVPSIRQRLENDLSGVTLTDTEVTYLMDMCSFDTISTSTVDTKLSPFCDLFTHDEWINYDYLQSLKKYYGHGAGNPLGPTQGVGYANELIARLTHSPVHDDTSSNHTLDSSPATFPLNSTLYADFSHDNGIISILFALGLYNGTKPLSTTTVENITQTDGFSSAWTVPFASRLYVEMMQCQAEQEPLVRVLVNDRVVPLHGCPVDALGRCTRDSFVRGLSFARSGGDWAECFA

[3] = molecular target: T2, Aspergillus ficuum phytase, wild type (Ullah, 1988) (Aspergillus niger, UniProt P34752); conditions: reported by Ullah 1988; substrate not given; cited from earlier work
T2 construct: Ullah reportedly purified a phytase from wild-type A. ficuum; host or cells: wild-type A. ficuum (extracellular enzyme)
T2 sequence (P34752 20-467): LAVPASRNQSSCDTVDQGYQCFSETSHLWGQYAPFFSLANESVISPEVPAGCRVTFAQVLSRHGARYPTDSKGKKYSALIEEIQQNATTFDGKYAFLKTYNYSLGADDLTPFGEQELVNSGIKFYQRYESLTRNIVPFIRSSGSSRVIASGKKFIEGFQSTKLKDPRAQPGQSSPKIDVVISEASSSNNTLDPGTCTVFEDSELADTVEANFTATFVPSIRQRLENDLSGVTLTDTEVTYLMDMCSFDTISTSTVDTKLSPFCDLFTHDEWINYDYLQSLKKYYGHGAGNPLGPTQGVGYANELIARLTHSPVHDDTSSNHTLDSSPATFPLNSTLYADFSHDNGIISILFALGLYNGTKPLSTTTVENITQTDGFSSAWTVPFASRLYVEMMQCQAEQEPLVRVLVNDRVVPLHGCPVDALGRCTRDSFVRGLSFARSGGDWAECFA

[4] = substrate: O=[N+]([O-])c1ccc(OP(=O)(O)O)cc1; test: purified protein, by the assay type; conditions: other: 37° C., pH2.5, pH 2.5
[5] = substrate: O=P(O)(O)O[C@H]1[C@H](OP(=O)(O)O)[C@@H](OP(=O)(O)O)[C@H](OP(=O)(O)O)[C@@H](OP(=O)(O)O)[C@H]1OP(=O)(O)O; test: Apparent Km of purified pH2.5 acid phosphatase (phosphate release, molybdate detection); format: biochemical, Aspergillus niger var. awamori; conditions: other: 37° C., pH 2.5
Experimental: as §1, §2

Molecule O=P(O)(O)O[C@H]1[C@H](OP(=O)(O)O)[C@@H](OP(=O)(O)O)[C@H](OP(=O)(O)O)[C@@H](OP(=O)(O)O)[C@H]1OP(=O)(O)O [sodium phytate] has a Km ([1]; listed as Na-phytate) of about 700 µM and a Km [1] of about 700 µM.

In the case of O=P(O)(O)O[C@H]1[C@H](OP(=O)(O)O)[C@@H](OP(=O)(O)O)[C@H](OP(=O)(O)O)[C@@H](OP(=O)(O)O)[C@H]1OP(=O)(O)O [phytate, myo-inositol-hexaphosphate], the Km [2] is listed as about 250 µM and the Km [3] is listed as about 40 µM.

B1: Aspergillus niger var. awamori strain ALKO243 (ATCC#38854) pH2.5 acid phosphatase, purified native enzyme, SEQ. ID. NO. 4 (Aspergillus awamori) (protein)
chain: FSYGAAIPQSTQEKQFSQEFRDGYSILKHYGGNGPYSERVSYGIARDPPTSCEVDQVIMVKRHGERYPSPSAGKDIEEALAKVYSINTTEYKGDLAFLNDWTYYVPNECYYNAETTSGPYAGLLDAYNHGNDYKARYGHLWNGETVVPFFSSGYGRVIETARKFGEGFFGYNYSTNAALNIISESEVMGADSLTPTCDTDNDQTTCDNLTYQLPQFKVAAARLNSQNPGMNLTASDVYNLMVMASFELNARPFSNWINAFTQDEWVSFGYVEDLNYYYCAGPGDKNMAAVGAVYANASLTLLNQGPKEAGSLFFNFAHDTNITPILAALGVLIPNEDLPLDRVAFGNPYSIGNIVPMGGHLTIERLSCQATALSDEGTYVRLVLNEAVLPFNDCTSGPGYSCPLANYTSILNKNLPDYTTTCNVSASYPQYLSFWWNYNTTTELNYRSSPIACQEGDAMD
notes: Peptide #1110T is derived from a trypsin digestion of purified native pH2.5 acid phosphatase; endogenous in cells; host or cells: A. niger var. awamori strain ALKO243 (ATCC#38854), purified in house from the cell-free culture medium
Molecule B1 has a Km [4] of 4000 µM and a Km [5] of 700 µM.
